Assay results as given in ChEMBL document CHEMBL3091359, “Potent oxazolidinone antibacterials with heteroaromatic C-ring substructure” (ACS Med Chem Lett, 2013).
pIC50: −log10 of the molar value. In brackets after ≈: the same amount, converted by molar mass.

How the values were obtained:
Moraxella catarrhalis = assay: Antibacterial activity against Moraxella catarrhalis SR26840 clinical isolate assessed as […] by CLSI broth microdilution method; assay type: functional
Staphylococcus aureus [1] = assay: Antibacterial activity against methicillin-resistant Staphylococcus aureus SR3637 clinical isolate infected in po dosed JCL/ICR systemic infection model assessed as mortality administered after 1 hr of infection measured for 7 days; assay type: functional
[2] = AUC (infinity) in ICR mouse at 67.7 mg/kg, po by LC-MS/MS analysis; assay type: ADME, organism-based; parameters: time infinity, dose 67.7 mg/kg, route oral; conditions: plasma
Staphylococcus aureus [3] = assay: Antibacterial activity against linezolid-resistant Staphylococcus aureus NRS271 clinical isolate harboring G2576T mutation in peptidyl transferase center domain V of 23S rRNA gene assessed as […] by CLSI broth microdilution method; assay type: functional
Cytochrome P450 3A4 = Cytochrome P450 3A4 (Homo sapiens, UniProt P08684); assay: Inhibition of human CYP3A4 assessed as terfenadine hydroxylation after 20 mins by LC-MS/MS analysis; assay type: ADME
Sequence of Cytochrome P450 3A4 (P08684 whole entry): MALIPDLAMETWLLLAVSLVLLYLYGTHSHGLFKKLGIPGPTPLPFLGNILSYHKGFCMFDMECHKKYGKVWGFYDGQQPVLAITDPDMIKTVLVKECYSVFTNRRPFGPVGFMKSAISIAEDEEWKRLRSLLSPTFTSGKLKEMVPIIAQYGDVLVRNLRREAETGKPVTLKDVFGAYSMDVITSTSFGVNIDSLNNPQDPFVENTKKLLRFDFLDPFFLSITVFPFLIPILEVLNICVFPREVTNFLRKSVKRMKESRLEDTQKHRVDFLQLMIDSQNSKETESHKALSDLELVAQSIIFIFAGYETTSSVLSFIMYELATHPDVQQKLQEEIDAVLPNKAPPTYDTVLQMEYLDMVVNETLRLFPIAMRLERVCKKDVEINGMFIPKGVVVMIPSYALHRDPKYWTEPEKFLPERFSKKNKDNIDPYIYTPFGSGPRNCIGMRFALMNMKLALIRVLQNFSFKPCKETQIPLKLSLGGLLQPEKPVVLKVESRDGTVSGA

Cytochrome P450 1A2 = target: T1, Cytochrome P450 1A2 (Homo sapiens, UniProt P05177); assay: Inhibition of human CYP1A2 assessed as ethoxyresorufin O-deethylation after 20 mins by fluorescence plate reader; assay type: ADME
T1 sequence (P05177 whole entry): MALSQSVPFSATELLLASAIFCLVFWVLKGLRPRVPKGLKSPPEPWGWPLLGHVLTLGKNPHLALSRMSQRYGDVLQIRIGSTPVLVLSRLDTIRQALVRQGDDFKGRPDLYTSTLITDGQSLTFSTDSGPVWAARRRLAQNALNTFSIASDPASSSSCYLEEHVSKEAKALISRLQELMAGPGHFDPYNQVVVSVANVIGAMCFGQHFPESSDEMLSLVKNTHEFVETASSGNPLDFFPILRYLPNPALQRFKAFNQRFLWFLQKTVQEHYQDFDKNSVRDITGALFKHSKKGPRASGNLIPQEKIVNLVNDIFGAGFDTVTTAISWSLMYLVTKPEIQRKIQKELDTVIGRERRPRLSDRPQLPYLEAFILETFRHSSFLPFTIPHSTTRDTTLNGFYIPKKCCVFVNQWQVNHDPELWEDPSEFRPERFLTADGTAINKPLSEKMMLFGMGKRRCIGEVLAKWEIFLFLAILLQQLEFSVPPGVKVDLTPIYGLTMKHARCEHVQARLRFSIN

[4] = Tmax in ICR mouse at 67.7 mg/kg, po by LC-MS/MS analysis; assay type: ADME, organism-based; parameters: dose 67.7 mg/kg, route oral; conditions: in vivo
[5] = Cmax in ICR mouse at 67.7 mg/kg, po by LC-MS/MS analysis; assay type: ADME, organism-based; parameters: dose 67.7 mg/kg, route oral; conditions: in vivo
Haemophilus influenzae = assay: Antibacterial activity against Haemophilus influenzae SR27914 clinical isolate assessed as […] by CLSI broth microdilution method; assay type: functional
Cytochrome P450 2C9 = Cytochrome P450 2C9 (Homo sapiens, UniProt P11712); assay: Inhibition of human CYP2C9 assessed as tolbutamide hydroxylation after 20 mins by LC-MS/MS analysis; assay type: ADME
Sequence of Cytochrome P450 2C9 (P11712 whole entry): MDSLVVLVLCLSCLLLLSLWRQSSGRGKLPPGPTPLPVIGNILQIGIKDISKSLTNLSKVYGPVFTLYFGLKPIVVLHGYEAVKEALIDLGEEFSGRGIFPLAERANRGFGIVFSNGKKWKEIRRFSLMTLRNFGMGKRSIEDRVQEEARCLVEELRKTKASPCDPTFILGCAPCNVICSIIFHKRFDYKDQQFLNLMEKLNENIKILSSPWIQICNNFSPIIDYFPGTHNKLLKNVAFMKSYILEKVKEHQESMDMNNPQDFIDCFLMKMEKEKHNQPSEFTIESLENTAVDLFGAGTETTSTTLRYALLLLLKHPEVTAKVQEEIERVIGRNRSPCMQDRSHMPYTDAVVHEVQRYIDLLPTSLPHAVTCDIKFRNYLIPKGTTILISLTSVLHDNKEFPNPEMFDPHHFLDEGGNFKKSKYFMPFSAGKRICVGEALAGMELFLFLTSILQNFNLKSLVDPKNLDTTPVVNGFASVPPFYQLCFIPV

Enterococcus faecium = assay: Antibacterial activity against Enterococcus faecium SR7940 clinical isolate assessed as […] by CLSI broth microdilution method; assay type: functional
Cytochrome P450 2D6 = Cytochrome P450 2D6 (Homo sapiens, UniProt P10635); assay: Inhibition of human CYP2D6 assessed as dextromethorphan O-demethylation after 20 mins by LC-MS/MS analysis; assay type: ADME
Sequence of Cytochrome P450 2D6 (P10635 whole entry): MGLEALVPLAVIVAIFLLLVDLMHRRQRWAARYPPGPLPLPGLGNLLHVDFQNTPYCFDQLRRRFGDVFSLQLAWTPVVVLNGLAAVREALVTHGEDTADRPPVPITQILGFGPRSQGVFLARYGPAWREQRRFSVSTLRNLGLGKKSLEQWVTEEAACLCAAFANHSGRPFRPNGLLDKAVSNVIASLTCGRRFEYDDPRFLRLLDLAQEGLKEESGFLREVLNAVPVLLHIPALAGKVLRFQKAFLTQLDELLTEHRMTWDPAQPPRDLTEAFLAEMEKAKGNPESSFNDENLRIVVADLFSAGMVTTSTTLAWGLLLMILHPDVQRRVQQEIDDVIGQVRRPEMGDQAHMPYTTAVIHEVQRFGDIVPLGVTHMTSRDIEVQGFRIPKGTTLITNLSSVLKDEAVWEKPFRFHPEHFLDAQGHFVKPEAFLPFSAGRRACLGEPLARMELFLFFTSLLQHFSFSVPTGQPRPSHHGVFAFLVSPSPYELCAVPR

Streptococcus pneumoniae [6] = assay: Antibacterial activity against penicillin-resistant Streptococcus pneumoniae SR11031 clinical isolate assessed as […] by CLSI broth microdilution method; assay type: functional
Enterococcus faecalis = assay: Antibacterial activity against Enterococcus faecalis SR1004 clinical isolate assessed as […] by CLSI broth microdilution method; assay type: functional
Staphylococcus aureus [7] = assay: Antibacterial activity against Staphylococcus aureus SR20549 clinical isolate assessed as […] by CLSI broth microdilution method; assay type: functional
Staphylococcus aureus [8] = assay: Antibacterial activity against methicillin-resistant Staphylococcus aureus SR3637 clinical isolate infected in iv dosed JCL/ICR systemic infection model assessed as mortality administered after 1 hr of infection measured for 7 days; assay type: functional
Streptococcus pneumoniae [9] = assay: Antibacterial activity against Streptococcus pneumoniae SR26207 clinical isolate assessed as […] by CLSI broth microdilution method; assay type: functional
Staphylococcus aureus [10] = assay: Antibacterial activity against Staphylococcus aureus Smith clinical isolate assessed as […] by CLSI broth microdilution method; assay type: functional
Staphylococcus aureus [11] = assay: Ratio of linezolid MIC to compound MIC for Staphylococcus aureus Smith clinical isolate; assay type: functional
Staphylococcus aureus [12] = assay: Antibacterial activity against methicillin-resistant Staphylococcus aureus SR3637 clinical isolate assessed as […] by CLSI broth microdilution method; assay type: functional
Staphylococcus aureus [13] = assay: Ratio of linezolid MIC to compound MIC for Staphylococcus aureus SR20549 clinical isolate; assay type: functional
MAO-B = target: T2, MAO-B (Rattus norvegicus, UniProt P19643); assay: Inhibition of rat forebrain MAO-B using [14C]PEA as substrate at 30 uM preincubated for 20 mins followed by substrate addition measured after 10 mins by liquid scintillation counting analysis; conditions: probe [14C]PEA
T2 sequence (P19643 whole entry): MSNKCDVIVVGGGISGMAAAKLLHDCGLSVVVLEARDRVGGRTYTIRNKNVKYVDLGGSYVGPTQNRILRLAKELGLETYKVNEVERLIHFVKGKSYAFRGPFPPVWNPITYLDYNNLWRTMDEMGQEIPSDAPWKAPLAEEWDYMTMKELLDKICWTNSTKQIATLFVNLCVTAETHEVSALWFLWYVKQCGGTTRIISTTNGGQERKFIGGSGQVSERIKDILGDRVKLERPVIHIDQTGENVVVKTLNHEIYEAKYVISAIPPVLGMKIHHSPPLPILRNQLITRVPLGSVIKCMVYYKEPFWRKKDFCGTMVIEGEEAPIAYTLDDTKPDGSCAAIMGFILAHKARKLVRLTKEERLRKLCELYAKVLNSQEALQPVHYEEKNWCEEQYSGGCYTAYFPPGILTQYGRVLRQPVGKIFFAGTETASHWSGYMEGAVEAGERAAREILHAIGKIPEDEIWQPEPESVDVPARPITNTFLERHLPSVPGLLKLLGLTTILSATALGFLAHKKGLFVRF

MAO-A = target: T3, MAO-A (Rattus norvegicus, UniProt P21396); assay: Inhibition of rat forebrain MAO-A using [14C]5-HT as substrate at 30 uM preincubated for 20 mins followed by substrate addition measured after 5 mins by liquid scintillation counting analysis; conditions: probe [14C]5-HT
T3 sequence (P21396 whole entry): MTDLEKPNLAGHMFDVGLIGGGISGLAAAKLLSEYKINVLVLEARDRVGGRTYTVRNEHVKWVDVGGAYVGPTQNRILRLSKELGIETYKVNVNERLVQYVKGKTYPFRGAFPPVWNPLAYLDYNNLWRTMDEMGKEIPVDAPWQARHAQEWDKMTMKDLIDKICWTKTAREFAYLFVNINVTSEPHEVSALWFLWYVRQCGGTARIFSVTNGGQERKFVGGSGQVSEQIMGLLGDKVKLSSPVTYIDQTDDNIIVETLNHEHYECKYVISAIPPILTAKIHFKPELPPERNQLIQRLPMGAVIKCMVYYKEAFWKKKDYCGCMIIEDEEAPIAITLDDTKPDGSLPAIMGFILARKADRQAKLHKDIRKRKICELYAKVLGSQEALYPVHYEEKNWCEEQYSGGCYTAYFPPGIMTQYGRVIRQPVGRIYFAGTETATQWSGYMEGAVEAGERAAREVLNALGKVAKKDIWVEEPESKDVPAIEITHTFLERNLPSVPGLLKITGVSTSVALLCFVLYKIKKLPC

Compound	MIC (Moraxella catarrhalis)	ED50 (Staphylococcus aureus [1])	MIC (Staphylococcus aureus [3])	pIC50 (Cytochrome P450 3A4)	pIC50 (Cytochrome P450 1A2)	MIC (Haemophilus influenzae)	pIC50 (Cytochrome P450 2C9)	MIC (Enterococcus faecium)	pIC50 (Cytochrome P450 2D6)	MIC (Streptococcus pneumoniae [6])	MIC (Enterococcus faecalis)	MIC (Staphylococcus aureus [7])	ED50 (Staphylococcus aureus [8])	MIC (Streptococcus pneumoniae [9])	MIC (Staphylococcus aureus [10])	Ratio (Staphylococcus aureus [11])	MIC (Staphylococcus aureus [12])	Ratio (Staphylococcus aureus [13])	inhibition at 10 min, 30 µM (MAO-B)	inhibition at 5 min, 30 µM (MAO-A)	further results
CC(=O)NC[C@H]1CN(c2ccc(N3CCOCC3)c(F)c2)C(=O)O1 [LINEZOLID]	8 µg/mL (≈ 23.7 µM)	1.98 mg/kg	32 µg/mL (≈ 94.9 µM)	< 4.70	< 4.70	16 µg/mL (≈ 47.4 µM)	< 4.70	2 µg/mL (≈ 5.93 µM)	< 4.70	–	–	–	–	–	–	–	–	–	–	–	AUC(0-inf) [2]: 162 µg·h/mL; Tmax [4]: 30 min; Cmax [5]: 37000 ng/mL
CC(=O)NC[C@H]1CN(c2ccc(-c3ccc4cncn4c3)c(F)c2)C(=O)O1	4 µg/mL (≈ 10.9 µM)	–	4 µg/mL (≈ 10.9 µM)	–	–	8 µg/mL (≈ 21.7 µM)	–	0.5 µg/mL (≈ 1.36 µM)	–	≤ 0.063 µg/mL	0.5 µg/mL (≈ 1.36 µM)	0.25 µg/mL (≈ 0.679 µM)	3.05 mg/kg	≤ 0.063 µg/mL	1 µg/mL (≈ 2.71 µM)	2	0.5 µg/mL (≈ 1.36 µM)	2	–	–	–
O=C1O[C@@H](Cn2ccnn2)CN1c1ccc(-c2ccc3nccn3c2)c(F)c1	4 µg/mL (≈ 10.6 µM)	–	4 µg/mL (≈ 10.6 µM)	–	–	4 µg/mL (≈ 10.6 µM)	–	0.5 µg/mL (≈ 1.32 µM)	–	≤ 0.063 µg/mL	0.5 µg/mL (≈ 1.32 µM)	0.25 µg/mL (≈ 0.661 µM)	–	≤ 0.063 µg/mL	0.5 µg/mL (≈ 1.32 µM)	–	0.25 µg/mL (≈ 0.661 µM)	–	–	–	–
O=C1O[C@@H](Cn2ccnn2)CN1c1ccc(-c2ccn3ncnc3c2)c(F)c1	4 µg/mL (≈ 10.5 µM)	0.95 mg/kg	2 µg/mL (≈ 5.27 µM)	< 4.70	< 4.70	2 µg/mL (≈ 5.27 µM)	< 4.70	0.25 µg/mL (≈ 0.659 µM)	< 4.70	≤ 0.063 µg/mL	0.25 µg/mL (≈ 0.659 µM)	0.125 µg/mL (≈ 0.33 µM)	–	≤ 0.063 µg/mL	0.25 µg/mL (≈ 0.659 µM)	–	0.25 µg/mL (≈ 0.659 µM)	–	27.9%	33.2%	–
CC(=O)NC[C@H]1CN(c2ccc(-c3ccn4ccnc4c3)c(F)c2)C(=O)O1	2 µg/mL (≈ 5.43 µM)	1.05 mg/kg	2 µg/mL (≈ 5.43 µM)	< 4.70	< 4.70	2 µg/mL (≈ 5.43 µM)	< 4.70	0.5 µg/mL (≈ 1.36 µM)	< 4.70	≤ 0.063 µg/mL	0.25 µg/mL (≈ 0.679 µM)	0.25 µg/mL (≈ 0.679 µM)	1.09 mg/kg	≤ 0.063 µg/mL	0.25 µg/mL (≈ 0.679 µM)	8	0.25 µg/mL (≈ 0.679 µM)	8	52.8%	54.8%	–
CC(=O)NC[C@H]1CN(c2ccc(-c3ccc4ncnn4c3)c(F)c2)C(=O)O1	8 µg/mL (≈ 21.7 µM)	–	8 µg/mL (≈ 21.7 µM)	–	–	4 µg/mL (≈ 10.8 µM)	–	0.5 µg/mL (≈ 1.35 µM)	–	≤ 0.063 µg/mL	0.5 µg/mL (≈ 1.35 µM)	0.5 µg/mL (≈ 1.35 µM)	–	≤ 0.063 µg/mL	0.5 µg/mL (≈ 1.35 µM)	4	0.5 µg/mL (≈ 1.35 µM)	2	–	–	–
